Tests used:
IGF1 receptor = target: T1, IGF1 receptor (Homo sapiens, UniProt P08069); experiment: ELISA-based assay of IGF1 receptor autophosphorylation inhibition in cells; format: cell-based; settings: IGF1R phosphorylation inhibition in MCF7 cells
T1 construct: MCF7 human breast cancer cells expressing IGF1 receptor; endogenous in cells; host or cells: MCF7 human breast cancer cells
Protocol: In another embodiment, compounds that interact with the IGF1R kinase domain are tested in a cell-based assay system. In accordance with this embodiment, cells expressing a full-length IGF1 receptor or a fragment thereof containing the IGF1R kinase domain, are contacted with a candidate or a control compound and the ability of the compound to block tyrosine kinase activity of IGF1R within a cell is determined. This assay may be used to screen a single compound or a large library of candidate compounds. Typically, the cells or cell lines are of mammalian origin and they can express the IGF1 receptor, or functional IGF1R kinase domain fragment, endogenously or be genetically engineered to express the IGF1R, or functional fragment thereof. The ability of the candidate compound to inhibit IGF1R kinase activity can be determined by methods known to those skilled in the art. For example, the inhibition can be determined by ELISA-type assay or Western blot analysis with cell lysates or immunoprecipitated IGF1R receptor using various anti-IGF1R and anti-phosphotyrosine antibodies.
In general, cells expressing IGF1R are treated with modulators (i.e., inhibitors or activators) of IGF1R kinase activity and cell lysates are produced from these treated cells. IGF1Rs are isolated from the lysate by immunoprecipitation and analyzed for phosphotyrosine content. Alternatively, or in addition, cellular protein substrates phosphorylated by IGFR may be immunoprecipitated from the lysates and their degree of tyrosine phosphorylation determined.
MCF7 human breast cancer cells expressing IGF1 receptor or an engineered […] fibroblast cell line NIH 3T3 overexpressing full-length IGF1R are an exemplary cellular models in which to perform such assays. Such cells may be maintained in DMEM medium supplemented with 10% fetal bovine serum (FBS), 4% L-glutamine, 1% antibiotic solution (penicillin-Streptomycin) in a humidified atmosphere of 95% air and 5% CO2 at 37° C. Confluent cells in T175 cell culture flasks are incubated overnight with serum-free DMEM medium. After the serum starvation step, the cells are detached and split into a standard 96-well cell culture plate (one T175 flask per plate, 30 μl of cell suspension per plate well). Tested inhibitors from their 10 mM stock solutions in DMSO are subsequently added at various concentrations in serum-free DMEM medium for 1 hour incubation at 37° C. in CO2-incubator; total DMSO concentration in both treated and control wells is adjusted to 1%. Cells are then stimulated for 10 minutes with 100 nM IGF-1 added in 30 μl DMEM. After treatment, cells are lysed by addition of 30 μl of 4× lysis buffer (phosphate-buffered saline (PBS), 2% Triton-X100, 1 mM phenylmethylsulphonyl fluoride (PMSF) and 8 mM activated orthovanadate), mixing and incubation for 15 minute at room temperature. To prepare assay plates, 96-well ELISA Plates (Pierce Chemical, Reacti-bind plates) were coated by goat-anti-rabbit Fc antiserum by adding 0.25 μg antiserum per well in 0.2M sodium bicarbonate buffer per well and incubating overnight at 4° C. After incubation, the plate is washed three times by PBS with 0.02% Tween-20, supplied with 25 ng/50 μl per well of anti-IGF1R antibody (C-20, Santa Cruz Biotechnology) and incubated for several hours to overnight. Prior to the addition of the prepared cellular lysates, the antibody solution is aspirated, wells washed with PBS and supplied with 25 μl per well of Starting Block buffer (Pierce Chemical).
To measure tyrosine phosphorylation of the beta-subunits of the IGF1R, 25-50 μl of the lysates are transferred from the stimulation plate to the wells of the prepared assay plate and incubated overnight at 4° C. The wells are washed with PBS with 0.02% Tween-20, incubated with 50 μl of 1:3000 dilution of anti-phosphotyrosine 4G10-HRP antibody conjugate (Upstate Biotechnology) for 2 hours at room temperature and washed again. […]

InsR = target: T2, InsR (Homo sapiens, UniProt P06213); experiment: Tyrosine kinase assay (Kinase-Glo or AlphaScreen), InsR; settings: biochemical tyrosine kinase assay
T2 construct: 6×His- or GST-tagged kinase domain fragments of the corresponding RTKs expressed in baculovirus system; host or cells: baculovirus system
Outline: (§1)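 Kinase-Glo format: baculovirus-expressed tagged kinase domain, poly(Glu-Tyr), 10 μM ATP, pH 7.5 Tris, MgCl2/MnCl2, DTT; 60 min at 37° C; remaining ATP by luciferase luminescence. Other kinases run identically, enzyme titrated to ≤30% ATP consumption. IC50 by non-linear regression, quadruplicates.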

Alk = target: T3, Alk (Homo sapiens, UniProt Q9UM73); experiment: Tyrosine kinase assay (Kinase-Glo or AlphaScreen), Alk; settings: biochemical tyrosine kinase assay
T3 construct: 6×His- or GST-tagged kinase domain fragments of the corresponding RTKs expressed in baculovirus system; host or cells: baculovirus system
Outline: as §1

T2 sequence (P06213 1023-1298 limits assumed, species assumed): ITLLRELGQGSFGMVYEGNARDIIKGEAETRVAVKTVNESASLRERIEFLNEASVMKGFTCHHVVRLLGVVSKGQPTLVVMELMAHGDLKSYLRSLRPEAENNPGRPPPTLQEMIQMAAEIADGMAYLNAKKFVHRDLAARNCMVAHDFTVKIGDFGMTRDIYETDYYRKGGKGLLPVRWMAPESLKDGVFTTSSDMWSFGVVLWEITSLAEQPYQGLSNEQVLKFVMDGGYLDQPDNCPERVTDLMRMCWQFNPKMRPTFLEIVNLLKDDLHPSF
T1 sequence (P08069 741-1367 limits assumed): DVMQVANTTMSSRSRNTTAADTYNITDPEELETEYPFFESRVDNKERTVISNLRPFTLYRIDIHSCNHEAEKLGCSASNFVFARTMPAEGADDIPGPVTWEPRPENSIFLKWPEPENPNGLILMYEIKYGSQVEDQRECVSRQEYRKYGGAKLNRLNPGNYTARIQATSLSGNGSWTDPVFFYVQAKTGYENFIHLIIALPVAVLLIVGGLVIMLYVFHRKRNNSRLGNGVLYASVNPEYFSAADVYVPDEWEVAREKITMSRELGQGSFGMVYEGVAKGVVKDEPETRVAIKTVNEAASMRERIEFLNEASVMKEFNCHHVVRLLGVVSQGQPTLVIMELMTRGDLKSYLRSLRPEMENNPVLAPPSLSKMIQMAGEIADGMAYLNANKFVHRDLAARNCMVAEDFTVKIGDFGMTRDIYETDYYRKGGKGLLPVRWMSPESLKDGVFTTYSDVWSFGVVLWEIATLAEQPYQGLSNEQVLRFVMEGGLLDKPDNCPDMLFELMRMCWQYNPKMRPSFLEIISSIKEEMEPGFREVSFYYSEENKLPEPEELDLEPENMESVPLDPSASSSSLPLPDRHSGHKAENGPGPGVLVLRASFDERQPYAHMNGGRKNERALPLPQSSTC
T1 sequence (P08069 31-736 partner limits assumed): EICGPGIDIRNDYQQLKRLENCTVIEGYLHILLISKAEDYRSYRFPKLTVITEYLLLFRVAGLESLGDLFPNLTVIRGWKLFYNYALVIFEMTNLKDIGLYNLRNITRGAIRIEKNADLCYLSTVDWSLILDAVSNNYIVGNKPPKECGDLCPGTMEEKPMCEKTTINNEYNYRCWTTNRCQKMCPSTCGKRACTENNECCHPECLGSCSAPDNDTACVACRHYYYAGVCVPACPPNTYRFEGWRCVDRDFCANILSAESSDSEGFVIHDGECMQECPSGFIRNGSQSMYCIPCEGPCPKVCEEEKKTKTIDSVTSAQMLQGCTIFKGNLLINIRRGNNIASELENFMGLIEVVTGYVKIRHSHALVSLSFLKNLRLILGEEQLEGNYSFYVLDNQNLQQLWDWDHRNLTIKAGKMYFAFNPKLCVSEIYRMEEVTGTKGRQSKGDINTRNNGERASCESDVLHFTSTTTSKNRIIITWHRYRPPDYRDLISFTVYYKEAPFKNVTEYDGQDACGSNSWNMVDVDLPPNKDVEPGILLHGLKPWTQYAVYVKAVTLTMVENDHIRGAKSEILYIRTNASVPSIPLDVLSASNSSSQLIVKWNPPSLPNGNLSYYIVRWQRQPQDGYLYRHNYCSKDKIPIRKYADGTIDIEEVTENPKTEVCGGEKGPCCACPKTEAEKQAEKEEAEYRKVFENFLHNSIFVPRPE
T3 sequence (Q9UM73 1116-1392 limits assumed, species assumed): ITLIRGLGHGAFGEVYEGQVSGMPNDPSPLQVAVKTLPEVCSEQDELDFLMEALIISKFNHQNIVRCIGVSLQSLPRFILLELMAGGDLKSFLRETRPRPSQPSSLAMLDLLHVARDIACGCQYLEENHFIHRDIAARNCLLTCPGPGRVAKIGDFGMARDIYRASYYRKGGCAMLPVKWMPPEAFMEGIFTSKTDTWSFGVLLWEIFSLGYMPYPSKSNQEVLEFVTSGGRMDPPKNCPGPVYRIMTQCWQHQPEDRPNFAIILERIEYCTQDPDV

| IC50 (IGF1 receptor) [µM] | IC50 (InsR) [µM] | IC50 (Alk) [µM] | SMILES |
| --- | --- | --- | --- |
| 0.5 to 5 | < 0.5 | 0.5 to 5 | Cc1ccc(OC[C@H](O)CNc2cc[nH]c(=O)c2-c2nc3c(C)c4c(cc3[nH]2)C(=O)N(C2CCN(C)CC2)C4)c(C)c1 [compound 139] |
| 5 to 15 | < 0.5 | 0.5 to 5 | CN1CCC(N2C(=O)c3cc4nc(-c5c(NC[C@@H](O)COc6c(F)ccc(Cl)c6F)cc[nH]c5=O)[nH]c4cc3C2=O)CC1 [compound 95] |
| 5 to 15 | > 15 | > 15 | Cc1ncsc1CCN1C(=O)c2cc3nc(-c4c(NC[C@@H](O)c5cccc(Cl)c5)cc[nH]c4=O)[nH]c3cc2C1=O [compound 32] |
| 0.5 to 5 | 0.5 to 5 | 0.5 to 5 | CN1CCC(N2C(=O)c3cc4nc(-c5c(NC[C@@H](O)COc6cccc(-c7ccccc7)c6)cc[nH]c5=O)[nH]c4cc3C2=O)CC1 [compound 89] |
| 0.5 to 5 | 0.5 to 5 | 0.5 to 5 | Cc1cc(C)c(OC[C@H](O)CNc2cc[nH]c(=O)c2-c2nc3cc4c(cc3[nH]2)C(=O)N(C2CCN(C)CC2)C4=O)c(CS(C)(=O)=O)c1 [compound 84] |
| 0.5 to 5 | 0.5 to 5 | 0.5 to 5 | CN1CCC(N2C(=O)c3cc4nc(-c5c(NC[C@@H](O)COc6ccc7ccccc7c6)cc[nH]c5=O)[nH]c4cc3C2=O)CC1 [compound 88] |
| 5 to 15 | < 0.5 | 0.5 to 5 | Cc1ccc(OC[C@H](O)CNc2cc[nH]c(=O)c2-c2nc3c(C)c4c(cc3[nH]2)C(=O)N(C2CCN(C)CC2)C4=O)c(C)c1 [compound 110] |
| 0.5 to 5 | < 0.5 | 0.5 to 5 | Cc1ccc(OC[C@H](O)CNc2cc[nH]c(=O)c2-c2nc3cc4c(c(C)c3[nH]2)CN(C2CCN(C)CC2)C4=O)c(C)c1 [compound 132] |
